In this assay the test system is HIF‐1α transcriptional activity. Kind of assay: dual‐luciferase assay (HRE‐Firefly Luciferase / renilla) of HIF‐1α transcriptional activity in HEK293T cells. In kind it is cell-based, human. To be noted: mean ± s.d. (n = 3); for inhibition at 10 µM: read-out: Inhibition rate [%] @ 10 µM; for IC50: HEK293T dual‐luciferase. The source says:
To screen HIF‐1α inhibitors in a robust cell‐based assay, we optimized the dual‐luciferase assay with pLenti‐HIF‐1αP2A (P402A and P564A) instead of pLenti‐HIF‐1α in order to ensure the expression of HIF‐1α under normoxia condition. In the cell‐based assay, HEK293T cells were co‐transfected with pLenti‐HIF‐1αP2A, renilla, and hypoxia‐responsive element (HRE)‐Firefly Luciferase (Figure S1, Supporting Information). […] Three compounds were selected as the positive controls including two inhibitors (PX‐478 2HCl and BAY 87‐2243) and an activator (BAY 85‐3934) in the screening assay.
HEK293T cells were stably transfected with reporter plasmids pGMLV‐HRE‐LUC‐puromycin, pMSCV‐renilla‐hygromycin, and pLenti‐HIF‐1αP2A‐neomycin. Stable cell line constructed above, 293‐HIF‐1αP2A‐HRE‐Fluc‐Rluc, were seeded in 384‐well plates and cultured in DMEM with 10% FBS. The following day, the cells were pretreated with indicated chemical compounds from the National Compound Library of the Shanghai Institute of Materia Medica, Chinese Academy of Sciences by Mosquito HTS. The plate was then placed in an incubator chamber and incubated at 37 °C for 24 h. The ratio of firefly/renilla luciferase activity was determined by using the Envision (PerkinElmer).
Stable cell line 293‐HRE‐Fluc‐Rluc expressed luciferase and renilla or HEK293T cells transfected with indicated plasmids (pGL3‐HRE‐luciferase and pSV40‐renilla) were seeded in a 96‐well plate. The cells were co‐incubated with indicated compounds for 24 h and luciferase activities were detected in Microplate Reader (BioTek SYNEGRY H1) using the Dual Luciferase Reporter Assay System Kit (Promega, USA E1910) according to the manufacturer's instruction. The relative Luc activity was normalized by renilla activity. Three independent experiments were performed, and the calculated means and SDs are presented.

The mark [1] stands for this setting: Homo sapiens, HEK-293T, 10 µM, incubation 24 h, HEK293T.

The structures appear in SMILES notation.

Consider `O=C(Nc1ccc(C23CC4CC(CC(C4)C2)C3)cc1)c1cncs1` [1‐4i, N‐(4‐((3r,5r,7r)‐Adamantan‐1‐yl)Phenyl)thiazole‐5‐Carboxamide], for which the inhibition at 10 µM under setting [1] came to 97.1 ± 0.4%. The same molecule returned a 50% inhibitory concentration (IC50) (Homo sapiens, HEK-293T) of 520 ± 20 nM.

With `O=C(Nc1ccc(C23CC4CC(CC(C4)C2)C3)cc1)c1ccc(N2CCOCC2)cc1` [1‐3ag, N‐(4‐((3r,5r,7r)‐Adamantan‐1‐yl)Phenyl)−4‐Morpholinobenzamide], the inhibition at 10 µM under setting [1] was found to be 41.6 ± 8.9%.

In the case of `COc1ccc(C(=O)Nc2ccc(C34CC5CC(CC(C5)C3)C4)cc2)cc1` [1‐3i, N‐(4‐((3r,5r,7r)‐Adamantan‐1‐yl)Phenyl)−4‐Methoxybenzamide], the inhibition at 10 µM under setting [1] stood at 86 ± 1.4%. The molecule also registered a 50% inhibitory concentration (IC50) (Homo sapiens, HEK-293T) of 1600 ± 300 nM.

Turning to `CCc1cc(C23CC4CC(C)(CC(C)(C4)C2)C3)cc(CC)c1NC(=O)c1cccc(Cl)c1` [3‐2h, 3‐Chloro‐N‐(4‐((1r,3R,5S,7r)−3,5‐Dimethyladamantan‐1‐yl)−2,6‐Diethylphenyl)Benzamide], the inhibition at 10 µM under setting [1] was 30 ± 8.4%.

For `O=C(CCCCN1CCOCC1)Nc1cccc(C(=O)Nc2ccc(C34CC5CC(CC(C5)C3)C4)cc2)c1` [1‐3an, N‐(4‐((1s,3s)‐Adamantan‐1‐yl)Phenyl)−3‐(5‐Morpholinopentanamido)Benzamide], under setting [1], the inhibition at 10 µM amounted to 93.4 ± 0.5%. Under “Homo sapiens, HEK-293T”, this molecule returned an IC50 of 370 ± 40 nM.

As for `O=C(CCCCBr)Nc1cccc(C(=O)Nc2ccc(C34CC5CC(CC(C5)C3)C4)cc2)c1` [1‐3al, N‐(4‐((1s,3s)‐Adamantan‐1‐yl)Phenyl)−3‐(5‐Bromopentanamido)Benzamide], under setting [1], the inhibition at 10 µM came to 89.5 ± 1.1%. The same molecule yielded an IC50 (Homo sapiens, HEK-293T) of 1000 ± 100 nM.

`O=C(Nc1ccc(C23CC4CC(CC(C4)C2)C3)cc1)c1cccs1` [1‐4j, N‐(4‐((3r,5r,7r)‐Adamantan‐1‐yl)Phenyl)Thiophene‐2‐Carboxamide]: the inhibition at 10 µM under setting [1] is 98.7 ± 0.6%. The same molecule registered an IC50 (Homo sapiens, HEK-293T) of 390 ± 10 nM.

As for `CC(NC(=O)c1ccc(NC(=O)c2ccccn2)cc1)C12CC3CC(CC(C3)C1)C2` (centres unmarked) [2‐3c, N‐(4‐((1‐((3r,5r,7r)‐Adamantan‐1‐yl)Ethyl)Carbamoyl)Phenyl)Picolinamide], under setting [1], the inhibition at 10 µM is 79.9 ± 2%. Also, the IC50 (Homo sapiens, HEK-293T) turned out to be 2100 ± 400 nM.

For the molecule `CC(=O)Nc1ccc(C(=O)Nc2ccc(C34CC5CC(CC(C5)C3)C4)cc2)cc1` [1‐3x, 4‐Acetamido‐N‐(4‐((3r,5r,7r)‐Adamantan‐1‐yl)Phenyl)Benzamide], under setting [1], the inhibition at 10 µM is 84.4 ± 1.9%. Besides, 950 ± 110 nM corresponded to half-maximal inhibition (Homo sapiens, HEK-293T) (IC50).

As for `COc1ccnc(C(=O)Nc2ccc(C34CC5CC(CC(C5)C3)C4)cc2)c1` [1‐4g, N‐(4‐((3r,5r,7r)‐Adamantan‐1‐yl)Phenyl)−4‐Methoxypicolinamide], the inhibition at 10 µM under setting [1] worked out at 68.5 ± 0.4%.

With `O=C(Nc1ccc(C23CC4CC(CC(C4)C2)C3)cc1)c1ccsc1` [1‐4o, N‐(4‐((3r,5r,7r)‐Adamantan‐1‐yl)Phenyl)Thiophene‐3‐Carboxamide], the inhibition at 10 µM under setting [1] was found to be 48.5 ± 8.7%.

As for `CC(C)c1cc(C23CC4CC(CC(C4)C2)C3)cc(C(C)C)c1NC(=O)c1cccc(Cl)c1` [3‐2b, N‐(4‐((3r,5r,7r)‐Adamantan‐1‐yl)−2,6‐Diisopropylphenyl)−3‐Chlorobenzamide], the inhibition at 10 µM under setting [1] came out at 27 ± 4.9%.

Consider `O=C(Nc1ncc(C23CC4CC(CC(C4)C2)C3)cn1)c1cccc(Cl)c1` [3‐2c, N‐(5‐((3r,5r,7r)‐Adamantan‐1‐yl)Pyrimidin‐2‐yl)−3‐Chlorobenzamide], for which the inhibition at 10 µM under setting [1] turned out to be 65.3 ± 4.3%.

As to `CC(C)(C)OC(=O)Nc1ccccc1C(=O)Nc1ccc(C23CC4CC(CC(C4)C2)C3)cc1` [1‐3p, Tert‐Butyl 2‐(2‐((4‐((3r,5r,7r)‐Adamantan‐1‐yl)Phenyl)Carbamoyl)Phenyl)Carbamate], the inhibition at 10 µM under setting [1] stood at 40.3 ± 3.2%.

Regarding `Nc1cccc(C(=O)Nc2ccc(C34CC5CC(CC(C5)C3)C4)cc2)n1` [1‐4q, N‐(4‐((3r,5r,7r)‐Adamantan‐1‐yl)Phenyl)−6‐Aminopicolinamide], under setting [1], the inhibition at 10 µM amounted to 98.6 ± 0.1%. Where the note is “Homo sapiens, HEK-293T”, this molecule gave a concentration for half-maximal inhibition (IC50) of 110 ± 20 nM.

Turning to `COC(=O)c1ccc(O)c(NC(=O)COc2ccc(C34CC5CC(CC(C5)C3)C4)cc2)c1` [LW6, reference compound], under setting [1], the inhibition at 10 µM came out at 70.9 ± 3.7%. The same molecule had an IC50 (Homo sapiens, HEK-293T) of 2600 ± 500 nM.

Take `CN(C)CCCC(=O)Nc1cccc(C(=O)Nc2ccc(C34CC5CC(CC(C5)C3)C4)cc2)c1` [1‐3ar, N‐(4‐((3r,5r,7r)‐Adamantan‐1‐yl)Phenyl)−3‐(4‐(Dimethylamino)Butanamido)Benzamide]: the inhibition at 10 µM under setting [1] was 79.4 ± 1.8%. Also, the midpoint of inhibition (Homo sapiens, HEK-293T), the IC50, lay at 2100 ± 400 nM.

With `CC(=O)Nc1ccc(C(=O)Nc2ccc(C34CC5CC(C)(CC(C)(C5)C3)C4)cc2)cc1` [3‐2d], under setting [1], the inhibition at 10 µM came out at 31.4 ± 4.5%.

For the molecule `CN1CCN(CCCCC(=O)Nc2ccc(C(=O)Nc3ccc(C45CC6CC(CC(C6)C4)C5)cc3)cc2)CC1` [1‐3ap, N‐(4‐((3r,5r,7r)‐Adamantan‐1‐yl)Phenyl)−4‐(5‐(4‐Methylpiperazin‐1‐yl)Pentanamido)Benzamide], under setting [1], the inhibition at 10 µM was 88.8 ± 0.2%. The same molecule returned a 50% inhibitory concentration (IC50) (Homo sapiens, HEK-293T) of 1400 ± 500 nM.

Turning to `CN(C)CCCC(=O)Nc1ccc(C(=O)Nc2ccc(C34CC5CC(CC(C5)C3)C4)cc2)cc1` [1‐3at, N‐(4‐((3r,5r,7r)‐Adamantan‐1‐yl)Phenyl)−4‐(4‐(Dimethylamino)Butanamido)Benzamide], the inhibition at 10 µM under setting [1] amounted to 90 ± 1.7%. Also, the IC50 (Homo sapiens, HEK-293T) turned out to be 940 ± 20 nM.

On to `COc1cccc(C(=O)Nc2ccc(C34CC5CC(CC(C5)C3)C4)cc2)c1` [1‐3h, N‐(4‐((3r,5r,7r)‐Adamantan‐1‐yl)Phenyl)−3‐Methoxybenzamide], for which the inhibition at 10 µM under setting [1] was found to be 92.1 ± 0.6%. Under “Homo sapiens, HEK-293T”, this molecule yielded an IC50 of 820 ± 130 nM.

Take `O=C(Nc1ccc(C23CC4CC(CC(C4)C2)C3)cc1)c1cccc(Br)c1` [1‐3e, N‐(4‐((3r,5r,7r)‐Adamantan‐1‐yl)Phenyl)−3‐Bromobenzamide]: the inhibition at 10 µM under setting [1] is 86.3 ± 0.2%. The molecule also had an IC50 (Homo sapiens, HEK-293T) of 1400 ± 300 nM.

For `O=C(Nc1ccc(C23CC4CC(CC(C4)C2)C3)cc1)c1cc(Cl)ccn1` [1‐4h, N‐(4‐((3r,5r,7r)‐Adamantan‐1‐yl)Phenyl)−4‐Chloropicolinamide], under setting [1], the inhibition at 10 µM was 91.5 ± 1.3%. The 50% inhibitory concentration (IC50) (Homo sapiens, HEK-293T) amounted to 720 ± 20 nM.

As to `O=C(CCCCN1CCOCC1)Nc1ccc(C(=O)Nc2ccc(C34CC5CC(CC(C5)C3)C4)cc2)cc1` [1‐3aq, N‐(4‐((3r,5r,7r)‐Adamantan‐1‐yl)Phenyl)−4‐(5‐Morpholinopentanamido)Benzamide], the inhibition at 10 µM under setting [1] was determined as 69.5 ± 0.5%.

As for `Cn1cccc1C(=O)Nc1ccc(C23CC4CC(CC(C4)C2)C3)cc1` [1‐4n, N‐(4‐((3r,5r,7r)‐Adamantan‐1‐yl)Phenyl)−1‐Methyl‐1H‐Pyrrole‐2‐Carboxamide], the inhibition at 10 µM under setting [1] was 57.5 ± 2%.

Take `O=C(Nc1ccc(C23CC4CC(CC(C4)C2)C3)cc1)c1ccccc1Br` [1‐3d, N‐(4‐((3r,5r,7r)‐Adamantan‐1‐yl)Phenyl)−2‐Bromobenzamide]: the inhibition at 10 µM under setting [1] came to 52.3 ± 3.1%.

As to `O=C(NC1C2CC3CC(C2)CC1C3)c1ccc(NC(=O)c2ccccn2)cc1` [2‐3a, N‐(4‐(((1R,3S,5r,7r)‐Adamantan‐2‐yl)Carbamoyl)Phenyl)Picolinamide], the inhibition at 10 µM under setting [1] is 78.5 ± 4.5%. Half-maximal inhibition (Homo sapiens, HEK-293T) (IC50) was put at 1500 ± 200 nM.

As to `O=C(Nc1ccc(C23CC4CC(CC(C4)C2)C3)cc1)c1ccc(Br)cc1` [1‐3f, N‐(4‐((3r,5r,7r)‐Adamantan‐1‐yl)Phenyl)−4‐Bromobenzamide], the inhibition at 10 µM under setting [1] is 67.1 ± 5.1%.

As to `COc1ccccc1C(=O)Nc1ccc(C23CC4CC(CC(C4)C2)C3)cc1` [1‐3g, N‐(4‐((3r,5r,7r)‐Adamantan‐1‐yl)Phenyl)−2‐Methoxybenzamide], the inhibition at 10 µM under setting [1] worked out at 40.2 ± 2.1%.

`Nc1cccc(C(=O)Nc2ccc(C34CC5CC(CC(C5)C3)C4)cc2)c1` [1‐3t, N‐(4‐((3r,5r,7r)‐Adamantan‐1‐yl)Phenyl)−3‐Aminobenzamide]: under setting [1], the inhibition at 10 µM worked out at 97.3 ± 0.4%. The molecule further showed an IC50 (Homo sapiens, HEK-293T) of 230 ± 30 nM.

In turn, `O=C(CCCC[C@@H]1SC[C@@H]2NC(=O)N[C@@H]21)Nc1ccc(C(=O)Nc2ccc(C34CC5CC(CC(C5)C3)C4)cc2)cc1` [1‐3y, N‐(4‐((3r,5r,7r)‐Adamantan‐1‐yl)Phenyl)−4‐(5‐((3aS,4S,6aR)−2‐Oxohexahydro‐1H‐Thieno[3,4‐d]Imidazol‐4‐yl)Pentanamido)Benzamide] displayed an IC50 of 280 ± 100 nM. Moreover, the “Inhibition rate [%] @ 10 µM” value (10 µM, incubation 24 h, HEK293T) was found to be 90.4 ± 0.8%.

As for `O=C(Nc1ccc(C23CC4CC(CC(C4)C2)C3)cc1)c1ccccc1Cl` [1‐3b, N‐(4‐((3r,5r,7r)‐Adamantan‐1‐yl)Phenyl)−2‐Chlorobenzamide], under setting [1], the inhibition at 10 µM is 58.4 ± 1.5%.

In the case of `O=C(Nc1ccc(C23CC4CC(CC(C4)C2)C3)cc1)c1ccccc1O` [1‐3m, N‐(4‐((3r,5r,7r)‐Adamantan‐1‐yl)Phenyl)−2‐Hydroxybenzamide], under setting [1], the inhibition at 10 µM was determined as 88.4 ± 0.2%. The molecule further returned an IC50 (Homo sapiens, HEK-293T) of 510 ± 20 nM.

With `N#Cc1ccccc1C(=O)Nc1ccc(C23CC4CC(CC(C4)C2)C3)cc1` [1‐3j, N‐(4‐((3r,5r,7r)‐Adamantan‐1‐yl)Phenyl)−2‐Cyanobenzamide], the inhibition at 10 µM under setting [1] was 41.8 ± 3.4%.

The values are drawn from article PMC10477886, “Adamantaniline Derivatives Target ATP5B to Inhibit Translation of Hypoxia Inducible Factor‐1α” (Advanced Science, 2023).
